Target: T1, human S1P1 receptor (Homo sapiens, UniProt P21453)
T1 construct: expressed in transfected cells; membranes used
Assay: GTP γ35S binding assay for S1P1 activity
Assay type: biochemical
Settings: membranes of cells stably expressing the S1P1 receptor; agonist-induced GTP γ35S binding; read-out: EC50 at the S1P1 receptor from GTP γ35S
Method: Compounds were synthesized and tested for S1P1 activity using the GTP γ^35S binding assay. These compounds may be assessed for their ability to activate or block activation of the human S1P1 receptor in cells stably expressing the S1P1 receptor.
GTP γ^35S binding was measured in the medium containing (mM) HEPES 25, pH 7.4, MgCl2 10, NaCl 100, dithitothreitol 0.5, digitonin 0.003%, 0.2 nM GTP γ^35S, and 5 μg membrane protein in a volume of 150 μl. Test compounds were included in the concentration range from 0.08 to 5,000 nM unless indicated otherwise. Membranes were incubated with 100 μM 5′-adenylylimmidodiphosphate for 30 min, and subsequently with 10 μM GDP for 10 min on ice. Drug solutions and membrane were mixed, and then reactions were initiated by adding GTP γ^35S and continued for 30 min at 25° C. Reaction mixtures were filtered over Whatman GF/B filters under vacuum, and washed three times with 3 mL of ice-cold buffer (HEPES 25, pH7.4, MgCl2 10 and NaCl 100). Filters were dried and mixed with scintillant, and counted for ^35S activity using a β-counter. Agonist-induced GTP γ^35S binding was obtained by subtracting that in the absence of agonist. Binding data were analyzed using a non-linear regression method. In case of antagonist assay, the reaction mixture contained 10 nM […] in the presence of test antagonist at concentrations ranging from 0.08 to 5000 nM.

T1 sequence (P21453 whole entry): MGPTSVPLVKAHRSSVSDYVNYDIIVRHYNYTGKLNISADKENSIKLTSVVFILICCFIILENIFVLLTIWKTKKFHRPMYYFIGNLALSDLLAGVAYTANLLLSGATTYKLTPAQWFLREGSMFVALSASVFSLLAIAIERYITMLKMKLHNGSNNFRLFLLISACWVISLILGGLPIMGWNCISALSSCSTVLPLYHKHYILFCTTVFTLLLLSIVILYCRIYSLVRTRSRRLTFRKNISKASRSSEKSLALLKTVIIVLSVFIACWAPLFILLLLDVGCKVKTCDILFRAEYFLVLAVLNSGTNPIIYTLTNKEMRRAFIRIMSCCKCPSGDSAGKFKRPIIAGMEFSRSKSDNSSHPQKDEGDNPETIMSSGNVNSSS

EC50: 1550 nM
Compound: CCCCCCc1ccc(-c2ccc(CN3CC(C(=O)O)C3)c3ncccc23)cc1 [Compound 1, 1-{[5-(4-hexylphenyl)quinolin-8-yl]methyl}azetidine-3-carboxylic acid]

Reference: patent US8673892B2, “Phenyl bicyclic methyl azetidine derivatives as sphingosine-1 phosphate receptors modulators” (Allergan, Inc., priority 2011, dated 2014)
